Entries after “also recorded” stand apart in the source; their conditions may differ. Where a name gives a salt, the structure may show the parent alone.
How the values were obtained:
[1] = molecular target: T1, human carbonic anhydrase I (hCA I) (Homo sapiens, UniProt P00915); experiment: Esterase activity assay (4-nitrophenyl-acetate), hCA I; format: biochemical
T1 construct: from tissue
Protocol: (§1) Blood samples (25 ml) from healthy human volunteers were collected. They were centrifuged at 1000g for 20 min at 4 °C, and the supernatant was removed. The packed erythrocytes were washed three times with 0.9% NaCl and then were hemolyzed in cold water. The pH of the hemolysate was adjusted to 8.5 with the solid Tris base. The 25-ml hemolysate was applied to an affinity column containing y Sepharose 4B-ethylene diamine-4-isothiocyanato-benzenesulfonamide[14].
(§2) The inhibitory effects of the drugs on enzyme activities were tested under in vitro conditions.

[2] = molecular target: T1, human carbonic anhydrase I (hCA I); experiment: CO2 hydratase activity assay (Maren method), hCA I; format: biochemical
Protocol: as §1, with “diamine-4-isothiocyanato-benzenesulfonamide[14]. CA isozymes were then eluted with 0.1 M NaCl/25 mM Na2HPO4 (pH 6.3) and 0.1 M CH3COONa/0.5 M NaClO4 (pH 5.6), which recovered hCA I and II, respectively.” for “diamine-4-isothiocyanato-benzenesulfonamide[14].”
(§3) CA activity was measured by the Maren method based on the determination of the time required for the pH to decrease from 10.0 to 7.4 due to CO2 hydration. The assay solution was 0.5 M Na2CO3/0.1 M NaHCO3 (pH 10.0), and phenol red was added as the pH indicator. Carbon dioxide-hydratase activity was calculated in enzyme units (EU) with the following equation: t0 – tc/tc, where t0 and tc are the times for the pH change of the nonenzymatic and the enzymatic reactions, respectively.
(§4) The drugs were triturated in a porcelain mortar pestle. Stock solutions of both drugs were prepared in dimethyl sulfoxide (DMSO). Different concentrations of the drugs were added to the enzyme activity determination medium with a total volume of 4.2 ml. The duration (in seconds) of the colour change from red to yellow in solution was measured in a 10-ml glass tube with a diameter of 1 cm. Control cuvette activity in the absence of the inhibitor was set at 100%. All compounds were tested in triplicate at each concentration used. For each inhibitor, an activity %–[inhibitor] graph was drawn (data not shown).

[3] = molecular target: T2, human carbonic anhydrase II (hCA II) (Homo sapiens, UniProt P00918); experiment: Esterase activity assay (4-nitrophenyl-acetate), hCA II; format: biochemical
T2 construct: from tissue
Protocol: as §1, §2

[4] = molecular target: T2, human carbonic anhydrase II (hCA II); experiment: CO2 hydratase activity assay (Maren method), hCA II; format: biochemical
Protocol: as §1, with “diamine-4-isothiocyanato-benzenesulfonamide[14]. CA isozymes were then eluted with 0.1 M NaCl/25 mM Na2HPO4 (pH 6.3) and 0.1 M CH3COONa/0.5 M NaClO4 (pH 5.6), which recovered hCA I and II, respectively.” for “diamine-4-isothiocyanato-benzenesulfonamide[14].”
as §3, §4

aldehyde oxidase = test system: aldehyde oxidase; design: method as in PMID 14681337; details: read-out: aldehyde oxidase inhibition (concentration printed without endpoint name); cited from earlier work
[5] = test system: 15 hCA isoforms (hCA I–XIV); details: cited from earlier work
CYP3A4 = test system: CYP3A4; design: method as in earlier work; details: concentration-dependent; read-out: IC50, CYP3A4 enzyme activity; cited from earlier work
[6] = molecular target: glucose-6-phosphate dehydrogenase; design: method as in PMID 29947262; details: cited from earlier work
[7] = test system: CA-I levels / atherosclerosis; design: method as in PMID 31354482; details: cited from earlier work
[8] = esterase method, 4-nitrophenyl-acetate, 348 nm, 25 °C, read-out: IC50 (esterase) hCA I
[9] = hydratase method, enzyme purified from human erythrocytes, read-out: IC50 (hydratase) hCA I
[10] = esterase method, 4-nitrophenyl-acetate, 348 nm, 25 °C, read-out: IC50 (esterase) hCA II
[11] = hydratase method, enzyme purified from human erythrocytes, read-out: IC50 (hydratase) hCA II

T1 sequence (P00915 whole entry): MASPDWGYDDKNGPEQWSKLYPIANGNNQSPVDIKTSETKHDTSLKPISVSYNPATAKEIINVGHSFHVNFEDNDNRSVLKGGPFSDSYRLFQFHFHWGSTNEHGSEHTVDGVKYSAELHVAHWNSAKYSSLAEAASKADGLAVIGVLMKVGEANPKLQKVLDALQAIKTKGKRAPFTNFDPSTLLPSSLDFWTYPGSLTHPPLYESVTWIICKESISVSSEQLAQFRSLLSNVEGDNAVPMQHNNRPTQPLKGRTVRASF

SMILES	IC50 [1, 8] [µM]	IC50 [2, 9] [µM]	IC50 [3, 10] [µM]	IC50 [4, 11] [µM]	other results
CC(=O)Oc1ccccc1C(=O)O [Acetylsalicylic acid]	43	252	–	–	–
CCCCc1oc2ccccc2c1C(=O)c1cc(I)c(OCCN(CC)CC)c(I)c1 [Amiodorane hydrochloride]	8.47	389	12.4	405	–
CCOC(=O)C1=C(COCCN)NC(C)=C(C(=O)OC)C1c1ccccc1Cl (stereo not shown) [Amlodipine]	38.5	133	38.8	126	IC50 (aldehyde oxidase): 5.5 µM
COc1ccc(-n2nc(C(N)=O)c3c2C(=O)N(c2ccc(N4CCCCC4=O)cc2)CC3)cc1 [Apixaban]	384	88.4	386	110	–
CC(C)c1c(C(=O)Nc2ccccc2)c(-c2ccccc2)c(-c2ccc(F)cc2)n1CC[C@@H](O)C[C@@H](O)CC(=O)O [Atorvastatin]	7.75	243	9.85	390	inhibition of the 15 hCA isoforms (hCA I–XIV) [5]: submicromolar–low nanomolar inhibition; IC50 (CYP3A4): […]
CC(C)NCC(O)COc1ccc(COCCOC(C)C)cc1 (stereo not shown) [Bisoprolol hemifumarate]	156	107	244	221	–
CCOc1nc2cccc(C(=O)OC(C)OC(=O)OC3CCCCC3)c2n1Cc1ccc(-c2ccccc2-c2nnn[nH]2)cc1 (stereo not shown) [Candesartan cilexetil]	342	185	177	271	–
C[C@H](CS)C(=O)N1CCC[C@H]1C(=O)O [Captopril]	1.58	121	6.25	131	–
COc1ccccc1OCCNCC(O)COc1cccc2[nH]c3ccccc3c12 (stereo not shown) [Carvedilol]	20.2	61.2	46.4	79	–
COC(=O)[C@H](c1ccccc1Cl)N1CCc2sccc2C1 [Clopidogrel]	94	250	103	364	–
CCCCCCOC(=O)NC(=N)c1ccc(NCc2nc3cc(C(=O)N(CCC(=O)OCC)c4ccccn4)ccc3n2C)cc1 [Dabigatran etexilate]	15.3	113	15.3	116	–
C[C@H]1O[C@@H](O[C@H]2[C@@H](O)C[C@H](O[C@H]3[C@@H](O)C[C@H](O[C@H]4CC[C@@]5(C)[C@H](CC[C@@H]6[C@@H]5C[C@@H](O)[C@]5(C)[C@@H](C7=CC(=O)OC7)CC[C@]65O)C4)O[C@@H]3C)O[C@@H]2C)C[C@H](O)[C@@H]1O [Digoxin]	23.1	74.9	32.8	88	–
COc1ccc([C@@H]2Sc3ccccc3N(CCN(C)C)C(=O)[C@@H]2OC(C)=O)cc1 [Diltiazem]	232	624	325	477	–
COc1cc2nc(N3CCN(C(=O)C4COc5ccccc5O4)CC3)nc(N)c2cc1OC (stereo not shown) [Doxazosin mesylate]	303	228	417	215	–
CN1CCc2nc(C(=O)N[C@@H]3C[C@@H](C(=O)N(C)C)CC[C@@H]3NC(=O)C(=O)Nc3ccc(Cl)cn3)sc2C1 [Edoxaban]	45.5	94	34.2	67	–
NS(=O)(=O)c1cc(C(=O)O)c(NCc2ccco2)cc1Cl [Furosemide]	–	–	–	–	IC50 [6]: 526 µM
O=[N+]([O-])OCC(CO[N+](=O)[O-])O[N+](=O)[O-] [Glyceryl trinitrate]	–	–	–	–	IC50 [4]: 272 µM; IC50 [2]: 220 µM

SMILES	IC50 [1, 8] [µM]	IC50 [2, 9] [µM]	IC50 [3, 10] [µM]	IC50 [4, 11] [µM]	other results
CCCCC1=NC2(CCCC2)C(=O)N1Cc1ccc(-c2ccccc2-c2nnn[nH]2)cc1 [Irbesartan]	345	235	335	239	–
O=[N+]([O-])O[C@@H]1CO[C@H]2[C@@H]1OC[C@@H]2O [Isosorbide mononitrate]	–	–	–	–	IC50 [3]: 5.5 µM; IC50 [4]: 160 µM; IC50 [1]: 6.08 µM; IC50 [2]: 160 µM
COc1cc2c(cc1OC)CC(=O)N(CCCN(C)C[C@H]1Cc3cc(OC)c(OC)cc31)CC2 [Ivabradine]	107	–	117	–	–
CCOC(=O)C1=C(C)NC(C)=C(C(=O)OCC)C1c1ccccc1/C=C/C(=O)OC(C)(C)C [Lacidipine]	150	696	155	482	–
COC(=O)C1=C(C)NC(C)=C(C(=O)OC(C)(C)CN(C)CCC(c2ccccc2)c2ccccc2)C1c1cccc([N+](=O)[O-])c1 (stereo not shown) [Lercanidipine hydrochloride]	294	201	423	159	–
CCN(CC)CC(=O)Nc1c(C)cccc1C [Lidocaine HCl]	–	19.6	–	2	–
COCCc1ccc(OCC(O)CNC(C)C)cc1 (stereo not shown) [Metoprolol succinate]	319	400	329	168	–
OC(CNCC(O)C1CCc2cc(F)ccc2O1)C1CCc2cc(F)ccc2O1 (stereo not shown) [Nebivolol hydrochloride]	404	73.7	410	95.3	–
CC(=O)Oc1cc2c(s1)CCN(C(C(=O)C1CC1)c1ccccc1F)C2 (stereo not shown) [Prasugrel]	330	155	429	205	–
CCCNCC(O)COc1ccccc1C(=O)CCc1ccccc1 (stereo not shown) [Propafenone]	2.8	228	3.02	235	Inhibition type, hCA II ([3]; Lineweaver–Burk plot): non-competitive; Ki ([3]; from Lineweaver–Burk plot): 2.97 µM; Inhibition type, hCA I ([1]; Lineweaver–Burk plot): non-competitive; Ki ([1]; from Lineweaver–Burk plot): 2.38 µM
CC(C)NCC(O)COc1cccc2ccccc12 (stereo not shown) [Propranolol]	–	1.77	–	–	–
CCOC(=O)[C@H](CCc1ccccc1)N[C@@H](C)C(=O)N1[C@H](C(=O)O)C[C@@H]2CCC[C@@H]21 [Ramipril]	32.3	281	37.9	154	–
COc1ccccc1OCC(O)CN1CCN(CC(=O)Nc2c(C)cccc2C)CC1 (stereo not shown) [Ranolazine]	600	503	645	544	–
O=C(NC[C@H]1CN(c2ccc(N3CCOCC3=O)cc2)C(=O)O1)c1ccc(Cl)s1 [Rivaroxaban]	189	220	244	204	–
CCCSc1nc(N[C@@H]2C[C@H]2c2ccc(F)c(F)c2)c2nnn([C@@H]3C[C@H](OCCO)[C@@H](O)[C@H]3O)c2n1 [Ticagrelor]	54	168	52.1	195	–
COc1ccc(CN2CCNCC2)c(OC)c1OC [Trimetazidine dihydrochloride]	112	196	112	151	–
CC(=O)/N=c1/sc(S(N)(=O)=O)nn1C [methazolamide]	–	–	–	–	CA-I levels / CA-I expression ([7]; animal atherosclerosis model): decreased CA-I levels; also recorded: suppresses CA-I expression; atherosclerosis [7]: significantly reduces atherosclerosis
